Source: patent US7282486B2, “Crystal forms of azithromycin” (Pfizer Inc, priority 2001, dated 2007)
One block for each compound: values may come before it.

How the values were obtained:
[1] = Heating of form A: variable temperature powder X-ray diffraction (VT-PXRD) and TGA; type: physicochemical
[2] = Dehydration/desolvation temperatures determined by DSC; type: physicochemical; settings: DSC analysis at 5° C./min from 30-300° C.
Procedure: Dehydration/desolvation temperatures were determined by DSC with a heating rate of 5° C./min.

stability of form when cooled to ambient temperature ([1]; cooled to ambient temperature after heating form A to about 90° C.): rapidly reverts to form A
SMILES: CCC1OC(=O)C(C)C(O[C@H]2C[C@@](C)(OC)[C@@H](O)C(C)O2)C(C)[C@@H](OC2OC(C)CC(N(C)C)[C@H]2O)C(C)(O)C[C@@H](C)CN(C)[C@H](C)[C@@H](O)[C@]1(C)O (stereo in doubt) [Form L]

broad endotherm (decomposition) [2]: 200-280 °C
SMILES: CCC1OC(=O)C(C)C(O[C@H]2C[C@@](C)(OC)[C@@H](O)C(C)O2)C(C)[C@@H](OC2OC(C)CC(N(C)C)[C@H]2O)[C@@](C)(O)C[C@@H](C)CN(C)[C@H](C)[C@@H](O)[C@]1(C)O (stereo partly shown) [Form D, azithromycin monohydrate monocyclohexane solvate]

weight loss by TGA ([1]; at 90° C.): about 2.5 weight %
temperature of solid-state conversion of form A to form L ([1]; heating, VT-PXRD): about 90 °C
SMILES: CC[C@H]1OC(=O)[C@H](C)[C@@H](O[C@H]2C[C@@](C)(OC)[C@@H](O)[C@H](C)O2)[C@H](C)[C@@H](O[C@@H]2O[C@H](C)C[C@H](N(C)C)[C@H]2O)[C@](C)(O)C[C@@H](C)CN(C)[C@H](C)[C@@H](O)[C@]1(C)O [Form A, azithromycin dihydrate]
